Test [1] deals with T1, mannose/Concanavalin A interaction (Canavalia ensiformis, UniProt P02866). In words: Inhibition competition assay with hydrogel particles, surface energy read out via RICM (SCP-RICM, inventive method). Type of test: binding. The settings on record: for IC50: read-out: IC50 value determined using an inventive method.
The target in test [2] is T1, mannose/Concanavalin A interaction. The settings on record: SPR measurements reported earlier; PAA Man values normalized per mannose; read-out: IC50 value determined using SPR inhibition assay; cited from earlier work.

Read-outs that look alike come from different tables or passages of the source.

Usually IC50 stands for the concentration needed to halve the response being measured.

Regarding `CO[C@H]1O[C@H](CO)[C@@H](O)[C@H](O)[C@@H]1O` [α-methyl-D-mannose], in test [1] (10 mM analyte added into the measurement cell (critical level of competitive analyte)), the “contact areas of functionalized hydrogel particles and surface energies” value was “completely vanish”. Also, the surface energy entry in test [1] (analyte at lower concentrations up to 5 mM, particles still in contact with the carrier surface) is “gradually decreases with the concentration of added analyte”. For the same molecule, the IC50 in test [1] (inverted system: PEG-ConA particles against a mannose functionalized surface (Fig. 7b)) is 649 ± 76.8 µM; in test [1] (mannose functionalized hydrogel particles, ConA immobilized on the solid carrier (Fig. 7a), Hill fit of normalized surface energy, PAA Man values normalized per mannose) it was 618 ± 19.1 µM; in test [2], 750 µM.

The record behind these values is patent publication EP2752664A1, “Label-free method for the detection of analytes” (priority 2013, dated 2014).
